Reference: US20220380347A1, “INHIBITORS OF CYSTEINE PROTEASES AND METHODS OF USE THEREOF” (Pardes Biosciences, Inc., priority 2020, published 2022)
Like-named read-outs stand apart in the source and are kept apart here.

Assays:
[1] = target: COVID-19 (nCoV-2019, SARS-CoV2) Mpro (Severe acute respiratory syndrome coronavirus 2, UniProt P0DTD1); test: COVID-19 (nCoV-2019, SARS-CoV2) Mpro enzymatic assay; format: biochemical; settings: 25 nM Mpro, 25 μM substrate; read-out: COVID-19 Mpro IC50
[2] = tested on: HCov OC43; test: HCoV OC43 cytopathic effect (CPE) assay, CellTiter Glo; format: cell-based, human coronavirus (HCov) OC43
Description: Example 238: Evaluation of antiviral activity of compounds against human coronavirus (HCov) 229E and OC43 in the cytopathic effect (CPE) assays
Compounds were assayed using standard methods against multiple coronaviral strains, including HCoV 229E and OC43 strains. The antiviral activity of compounds was calculated based on the protection of the virus-induced CPE at each concentration normalized by the virus control.
Reference compound used was remdesivir; detection reagent: CellTiter Glo.) The CPE were measured by CellTiter Glo following the manufacturer's manual. The antiviral activity of compounds was calculated based on the protection of the virus-induced CPE at each concentration normalized by the virus control.
Cell viability was measured with CellTiter Glo.

[3] = target: 229E Mpro (Human coronavirus 229E, UniProt P0C6X1); test: 229E Mpro enzymatic assay (standard methods, SARS-CoV2 Mpro assay given as exemplary); format: biochemical, human coronavirus (HCov) 229E
Chain of 229E Mpro (P0C6X1 2966-3267): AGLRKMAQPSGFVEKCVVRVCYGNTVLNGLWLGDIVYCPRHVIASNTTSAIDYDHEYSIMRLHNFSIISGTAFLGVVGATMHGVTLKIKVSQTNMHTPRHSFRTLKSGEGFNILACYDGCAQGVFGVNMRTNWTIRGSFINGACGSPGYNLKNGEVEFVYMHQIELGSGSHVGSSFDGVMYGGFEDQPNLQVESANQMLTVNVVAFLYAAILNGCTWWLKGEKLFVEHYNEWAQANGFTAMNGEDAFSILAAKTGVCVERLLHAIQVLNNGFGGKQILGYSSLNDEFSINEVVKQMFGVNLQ
Description: Compounds were assayed using standard methods to assess compound activity and IC50. As an exemplary for assessment of the SARS-COV2 Mpro, the C-His6-tagged Mpro (NC_045512) was cloned, expressed in E. coli and purified. The assay buffer contained 20 mM of Tris-HCl (pH 7.3), 100 mM of NaCl, 1 mM of EDTA, 5 mM of TCEP and 0.1% BSA. The final concentrations of the Mpro protein and substrate were 25 nM and 25 μM, respectively, in the Mpro enzymatic assay. The Km of the Mpro substrate for the protease was 13.5 μM.
The compounds were added to an assay plate. […] For no inhibition control (ZPE, zero percent effect), no compound was added.
IC50 values of compounds were calculated with the GraphPad Prism software using the nonlinear regression model of log(inhibitor) vs. response—Variable slope (four parameters). The inhibition activity was calculated using the formula below, IC50 values is calculated using the Inhibition % data.
Inhibition %=[(Sample-Average ZPE)/(Average HPE-Average ZPE)]*100%^#

[4] = read-out: OC43 IC50 (uM) MEDIAN, median
[5] = Betacoronavirus 1, OC43, read-out: OC43 IC50 (uM) MEDIAN, median

SMILES | IC50 [1] | IC50 [2, 4] | EC50 ([3]; read-out: 229E Mpro EC50) | IC50 [2, 5] | EC50 ([3]; 229E Mpro EC50)
N#C[C@H]1C[C@H](C(=O)N(c2ccc(S(F)(F)(F)(F)F)cc2)C(C(=O)NC2CCC(F)(F)CC2)c2cncc(F)c2)N(C#N)C1 (single isomer, unassigned) [1100 Isomer 2] | < 2000 nM | < 2 µM | < 2000 nM |  | 
CS(=O)(=O)[C@H]1C[C@H](C(=O)N(c2ccc(S(F)(F)(F)(F)F)cc2)C(C(=O)NC2CCC(F)(F)CC2)c2cncc(F)c2)N(C#N)C1 (single isomer, unassigned) [1105 Isomer 1] | < 2000 nM |  |  | < 2 µM | < 2000 nM
CS(=O)(=O)[C@H]1C[C@H](C(=O)N(c2ccc(S(F)(F)(F)(F)F)cc2)C(C(=O)NC2CCC(F)(F)CC2)c2cncc(F)c2)N(C#N)C1 (single isomer, unassigned) [1105 Isomer 2] | < 2000 nM | < 2 µM | < 2000 nM |  | 
CO[C@@H]1C[C@H](C(=O)N(c2ccc(S(F)(F)(F)(F)F)cc2)C(C(=O)N(C)CC(=O)NC2CC2)c2cccnc2)N(C#N)C1 (single isomer, unassigned) [1122 Isomer 1] | < 2000 nM | < 2 µM | < 2000 nM |  | 
CO[C@@H]1C[C@H](C(=O)N(c2ccc(S(F)(F)(F)(F)F)cc2)C(C(=O)N(C)CC(=O)NC2CC2)c2cccnc2)N(C#N)C1 (single isomer, unassigned) [1122 Isomer 2] | 10000 to 30000 nM | 2 to 10 µM | < 2000 nM |  | 
CC1(C)CN(C#N)[C@@H](C(=O)N(c2ccc(C(C)(C)C)cc2)C(C(=O)NC2CCOCC2)c2cccnc2)CO1 (single isomer, unassigned) [1141 Isomer 1] | 2000 to 10000 nM | 2 to 10 µM |  |  | 10000 to 30000 nM
CC1(C)CN(C#N)[C@@H](C(=O)N(c2ccc(C(C)(C)C)cc2)C(C(=O)NC2CCOCC2)c2cccnc2)CO1 (single isomer, unassigned) [1141 Isomer 2] | < 2000 nM | 2 to 10 µM |  |  | < 2000 nM
CC1(C)CN(C#N)[C@@H](C(=O)N(c2ccc(C(C)(C)C)cc2)C(C(=O)NC2CCOCC2)c2cccnc2)CO1 (single isomer, unassigned) [1141 Isomer 3] | > 30000 nM | > 30 µM |  |  | 10000 to 30000 nM
CC1(C)CN(C#N)[C@@H](C(=O)N(c2ccc(C(C)(C)C)cc2)C(C(=O)NC2CCOCC2)c2cccnc2)CO1 (single isomer, unassigned) [1141 Isomer 4] | 10000 to 30000 nM | 10 to 30 µM |  |  | < 2000 nM
CC(C)(C)c1ccc(N(C(=O)[C@H]2C[C@@](C)(O)CN2C#N)C(C(=O)NC2CCOCC2)c2cccnc2)cc1 (single isomer, unassigned) [1142 Isomer 1] | < 2000 nM | < 2 µM |  |  | < 2000 nM
CC(C)(C)c1ccc(N(C(=O)[C@H]2C[C@@](C)(O)CN2C#N)C(C(=O)NC2CCOCC2)c2cccnc2)cc1 (single isomer, unassigned) [1142 Isomer 2] | 2000 to 10000 nM | 10 to 30 µM | < 2000 nM |  | 
CO[C@@H]1C[C@H](C(=O)N(c2ccc(S(F)(F)(F)(F)F)cc2)C(C(=O)N2CCN(C(=O)OC(C)(C)C)C2)c2cccnc2)N(C#N)C1 (single isomer, unassigned) [1148d Isomer 1] | 2000 to 10000 nM |  |  | < 2 µM | < 2000 nM
C[C@@]1(O)C[C@H](C(=O)N(c2ccc(S(F)(F)(F)(F)F)cc2)C(C(=O)NC2CCC(F)(F)CC2)c2ccc(F)nc2)N(C#N)C1 (single isomer, unassigned) [1157 Isomer 1] | < 2000 nM |  |  | < 2 µM | < 2000 nM
C[C@@]1(O)C[C@H](C(=O)N(c2ccc(S(F)(F)(F)(F)F)cc2)C(C(=O)NC2CCC(F)(F)CC2)c2ccc(F)nc2)N(C#N)C1 (single isomer, unassigned) [1157 Isomer 2] | 2000 to 10000 nM | 2 to 10 µM | < 2000 nM |  | 
C[C@@]1(O)C[C@H](C(=O)N(c2ccc(S(F)(F)(F)(F)F)cc2)C(C(=O)NC2CCC(F)(F)CC2)c2cccnc2F)N(C#N)C1 (single isomer, unassigned) [1158 Isomer 1] | < 2000 nM |  |  | < 2 µM | < 2000 nM
